According to patent publication US9849190B2, “Peptide having cancer selective translocation function and use thereof” (SNU R&DB FOUNDATION, priority 2012, dated 2017):

Key:
[1] = tested on: tumor cell line (MDA-MB-231, ATCC); assay: Tumor cell penetration of fluorescent-labelled peptides (FACS, confocal microscopy); assay type: cell-based; details: for fluorescence of the tumor cells measured by FACS: MDA-MB-231, 60 minutes after inoculation, various peptide concentrations, FIG. 1A; for ability to penetrate the tumor cell line, confocal laser scanning microscope: MDA-MB-231, various peptide concentrations, FIG. 1B
Description: In order to test the tumor cell-targeting and tumor cell-penetrating abilities of the VPTD peptide of SEQ ID NO: 1 and the HPTD peptide of […], prepared in Example 1, the termini of the prepared peptides were labeled with a fluorescent dye, and then each of the peptides was inoculated into a tumor cell line (MDA-MB-231, ATCC) at various concentrations.
60 minutes after the inoculation, the fluorescence of the cells was measured by FACS, and the results of the measurement are shown in FIGS. 1A and 1B.

[2] = Slot-blot analysis of binding to heparin; details: FIG. 2
Text: (§1) This is believed to be because the tumor-penetrating ability of the VPTD peptide of the present invention was maximized in the tumor tissue and the VPTD peptide did bind specifically to VEGF to inhibit vascular formation essential for the formation and progression of tumors. […] As a result, it could be seen that the VPTD peptide and the HPTD peptide did all bind to VEGF and heparin, which are overexpressed in tumor cells or tumor tissue.

[3] = tested on: VEGF; assay: Slot-blot analysis of binding to VEGF; details: FIG. 2
Text: as §1

[4] = tested on: tumor induced in mice; assay: Tumor inhibitory effect in tumor-induced mice; assay type: in vivo; details: injected, volume measured every 3-4 days for 30 days, versus control, FIG. 3
Description: In order to test the effects of the VPTD peptide of SEQ ID NO: 1 (VSRRRRRRGGRRRR) and the HPTD peptide of SEQ ID NO: (CSSRKKNPNCRRH), prepared in Example 1, and the tumor-targeting and tumor-penetrating peptide-drug conjugates prepared in Example 2, a tumor was induced in mice, and when the tumor grew to a predetermined size, each of the peptides prepared in Example 1 and the tumor-targeting and tumor-penetrating peptide-drug conjugates prepared in Example 2 was injected into the mice. After injection, the volume of the tumor was measured at intervals of 3-4 days for 30 days. On day 30, the mice were sacrificed, and the tumor was extracted and photographed.
as §1

Row | Sequence | fluorescence of the tumor cells measured by FACS [1] | ability to penetrate the tumor cell line, confocal laser scanning microscope [1] | binding to heparin [2] | binding to VEGF [3] | progression of the tumor (tumor volume) [4]
1 | CSSRKKNPNCRRH (HPTD) [HPTD peptide] | increased in a manner dependent on the concentration of the peptide | increased in a manner dependent on the concentration of the peptide | did all bind | did all bind | 
2 | VSRRRRRRGGRRRR (VPTD) [VPTD peptide] | increased in a manner dependent on the concentration of the peptide | increased in a manner dependent on the concentration of the peptide | did all bind | did all bind | significantly inhibited
